According to patent publication US12570675B2, “Boronic acid compounds” (LG CHEM, LTD., priority 2020, dated 2026):

Molecular target: Proteasome chymotrypsin-like activity (S26 protein from RPMI8226 cells) (Homo sapiens, UniProt P28074)
Type: biochemical
Conditions: S26 protein from RPMI8226 cell extract 2 ug/well, substrate 20 uM, 37° C., 90 minutes; read-out: Proteasome chymotrypsin-like activity inhibition IC50
How it was run: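 Inhibition is measured in crude proteasome (S26) from RPMI8226 cells at 2 ug/well, using 20 uM substrate specific to each activity: Suc-LLVY-AMC for chymotrypsin-like, Z-LLE-AMC for caspase-like. Compounds span a dilution series from 10 uM.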

Sequence of Proteasome chymotrypsin-like activity (S26 protein from RPMI8226 cells) (P28074 60-263 limits assumed): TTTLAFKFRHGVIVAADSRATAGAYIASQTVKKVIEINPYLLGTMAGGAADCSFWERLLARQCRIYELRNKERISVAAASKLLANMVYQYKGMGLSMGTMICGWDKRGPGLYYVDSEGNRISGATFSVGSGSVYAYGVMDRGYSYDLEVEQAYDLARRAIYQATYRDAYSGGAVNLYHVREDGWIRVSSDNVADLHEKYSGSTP

IC50 [nM] | Compound
< 10 | CC(C)[C@H](NC(=O)C1(Cc2ccccc2)CC(CNC(=O)c2cccc(Cl)n2)=NO1)B(O)O (stereo partly drawn) [Example 319, ((1R)-1-(5-benzyl-3-((6-chloropicolinamido)methyl)-4,5-dihydroisoxazol-5-carboxamido)-2-methylpropyl)boronic acid]
< 10 | O=C(NCC1=NOC(Cc2ccccc2)(C(=O)N[C@@H](Cc2ccccc2)B(O)O)C1)c1cccc2ncnn12 (stereo partly drawn) [Example 313, ((1R)-1-(3-(([1,2,4]triazolo[1,5-a]pyridin-5-carboxamido)methyl)-5-benzyl-4,5-dihydroisoxazol-5-carboxamido)-2-phenylethyl)boronic acid]
< 10 | CC(C)C[C@H](NC(=O)C1(Cc2ccccc2)CC(COc2ccccc2)=NO1)B(O)O (stereo partly shown) [Example 254]
< 10 | Cc1cc(COCC2=NOC(Cc3ccccc3)(C(=O)N[C@@H](CC(C)C)B(O)O)C2)ccn1 (stereo partly shown) [Example 276]
< 100 | CC(C)C[C@H](NC(=O)C1(Cc2ccccc2)CC(COc2ccc3ccccc3c2)=NO1)B(O)O (stereo partly shown) [Example 262]
< 10 | Cc1cccc(COCC2=NOC(Cc3ccccc3)(C(=O)N[C@@H](CC(C)C)B(O)O)C2)c1 (stereo partly shown) [Example 270]
< 10 | O=C(NCC1=NOC(Cc2ccccc2)(C(=O)N[C@@H](Cc2ccccc2)B(O)O)C1)c1cccc(C(F)(F)F)c1 (stereo partly drawn) [Example 281, ((1R)-1-(5-benzyl-3-((3-(trifluoromethyl)benzamido)methyl)-4,5-dihydroisoxazol-5-carboxamido)-2-phenylethyl)boronic acid]
< 10 | CC(C)C[C@H](NC(=O)C1(Cc2ccccc2)CC(COCc2ccccn2)=NO1)B(O)O (stereo partly shown) [Example 268]

The remaining lines, values behind:

Compound | IC50 [nM]
CC(C)C[C@H](NC(=O)C1(Cc2ccccc2)CC(CNC(=O)c2cc(-c3ccccn3)nn2C(C)C)=NO1)B(O)O (stereo partly drawn) [Example 221, ((1R)-1-(5-benzyl-3-((1-isopropyl-3-(pyridin-2-yl)-1H-pyrazol-5-carboxamido)methyl)-4,5-dihydroisoxazol-5-carboxamido)-3-methylbutyl)boronic acid] | < 10
CCOCC1(C(=O)N[C@@H](CC(C)C)B(O)O)CC(CNC(=O)c2nccc3ccccc23)=NO1 (stereo partly drawn) [Example 193, ((1R)-1-(5-(ethoxymethyl)-3-((isoquinolin-1-carboxamido)methyl)-4,5-dihydroisoxazol-5-carboxamido)-3-methylbutyl)boronic acid] | < 10
CC(C)C[C@H](NC(=O)C1(C(C)C)CC(CNC(=O)c2cc(Cl)ccc2Cl)=NO1)B(O)O (stereo partly drawn) [Example 89, ((1R)-1-(3-((2,5-dichlorobenzamido)methyl)-5-isopropyl-4,5-dihydroisoxazol-5-carboxamido)-3-methylbutyl)boronic acid] | < 100
CCC1(C(=O)N[C@@H](CC(C)C)B(O)O)CC(c2ccccc2)=NO1 (stereo partly drawn) [Example 4, ((1R)-1-(5-ethyl-3-phenyl-4,5-dihydroisoxazol-5-carboxamido)-3-methylbutyl)boronic acid] | > 1000
CC(C)C[C@H](NC(=O)C1(Cc2ccccc2)CC(CNCc2nccc3ccccc23)=NO1)B(O)O (stereo partly drawn) [Example 147, ((1R)-1-(5-benzyl-3-(((isoquinolin-1-ylmethyl)amino)methyl)-4,5-dihydroisoxazol-5-carboxamido)-3-methylbutyl)boronic acid] | < 25
CC(C)C[C@H](NC(=O)C1(Cc2ccccc2)CC(CNC(=O)c2cnnc3ccccc23)=NO1)B(O)O (stereo partly drawn) [Example 165, ((1R)-1-(5-benzyl-3-((cinnolin-4-carboxamido)methyl)-4,5-dihydroisoxazol-5-carboxamido)-3-methylbutyl)boronic acid] | < 10
COC[C@H](NC(=O)c1cccc(C)n1)C1=NOC(Cc2ccccc2)(C(=O)N[C@@H](CC(C)C)B(O)O)C1 (stereo partly drawn) [Example 195, ((1R)-1-(5-benzyl-3-((R)-2-methoxy-1-(6-methylpicolinamido)ethyl)-4,5-dihydroisoxazol-5-carboxamido)-3-methylbutyl)boronic acid] | < 50
CC(C)C[C@H](NC(=O)C1(Cc2ccccc2)CC(CCNC(=O)c2nccc3ccccc23)=NO1)B(O)O (stereo partly shown) [Example 253] | < 10
